Data on eight compounds can be found in patent US20260144788A1, “COMPOUND FOR SHP2 PROTEIN DEGRADATION AND MEDICAL USES THEREOF” (UBIX THERAPEUTICS, INC., priority 2022, published 2026).

Structures are written as SMILES.

This experiment addresses T1, SHP2 protein (Homo sapiens, UniProt Q06124).
T1 sequence (Q06124 1-593): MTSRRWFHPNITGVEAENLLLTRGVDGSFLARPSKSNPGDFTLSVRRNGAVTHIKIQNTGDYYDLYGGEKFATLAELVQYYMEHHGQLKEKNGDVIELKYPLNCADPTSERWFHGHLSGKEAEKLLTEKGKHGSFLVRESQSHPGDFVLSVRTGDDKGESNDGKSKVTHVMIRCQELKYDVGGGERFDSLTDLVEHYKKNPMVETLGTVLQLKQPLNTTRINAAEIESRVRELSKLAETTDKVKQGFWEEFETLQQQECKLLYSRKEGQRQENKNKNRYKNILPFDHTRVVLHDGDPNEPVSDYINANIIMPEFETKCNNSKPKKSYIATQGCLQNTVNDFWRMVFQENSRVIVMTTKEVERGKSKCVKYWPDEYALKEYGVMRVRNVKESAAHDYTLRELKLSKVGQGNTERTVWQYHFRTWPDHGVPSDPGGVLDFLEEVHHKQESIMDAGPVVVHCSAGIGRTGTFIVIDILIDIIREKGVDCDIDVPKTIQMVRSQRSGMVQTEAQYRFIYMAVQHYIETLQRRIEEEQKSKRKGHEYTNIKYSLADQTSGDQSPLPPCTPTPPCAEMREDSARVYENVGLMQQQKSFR
Kind of experiment: Measurement of SHP2 protein degradation in NCI-H358 cells (western blotting). In kind it is cell-based. Further details: endogenous in cells; host or cells: NCI-H358. The settings on record: harvested after 24 hours. The protocol: H358 cells were treated with the synthesized Example compounds, and the amount of SHP2 protein present in the cells was measured using western blotting detection. The protocol for the experiment using H358 cells is as follows.
[Culture]H358 cells were resuspended in RPMI1640 with 25 mM HEPES (Hyclone, SH30255.01), 10% FBS (Hyclone, SV30207.02), 1% Penicillin-streptomycin (Welgene, LS 202-02) media, seeded at 3×10^5/mL in 12-well plates (1 mL each), and cultured for 24 hours.
[Compound treatment] Before compound treatment, the media was changed to 1 mL media, and then the 12-well plate was treated as follows. The 10 mM stock dissolved in DMSO was serially diluted 1/100 or 1/10 with the media, and the compound was treated to the cells at a final concentration of 0.001, 0.01, and 0.1 μM, and harvested after 24 hours. For the negative control group, DMSO diluted 1/1000 in the media was added (1 μL DMSO+999 μL media).
[Harvest]24 hours after compound treatment, each well was scraped with a cell lifter (SPL, 90040), pipetted with a 1 mL pipette, collected in a 1.5 mL microtube, and centrifuged (500 g, 5 min, 4° C.). The supernatant was removed, washed with PBS, and centrifuged again (500 g, 5 min, 4° C.). Afterwards, the supernatant was removed to prepare a pellet.
[Cell lysis and sample preparation] Lysis buffer was prepared as follows. RIPA buffer (Biosesang, RC2038-050-00)+0.5 mM PMSF (SIGMA, P7626)+1× Protease/Phosphatase Inhibitor (Cell signaling, 5872S) were added at 30 μL per tube, vortexed, and incubated on ice for 30 minutes. Afterwards, sonication was performed (10 sec pulse, 30 sec rest, 5 cycles, 70% amplification) and centrifugation was performed (15,000 g, 15 min, 4° C.), and only the supernatant was transferred to a microtube. A 96-well plate was diluted to 1/4 with 7.5 μL of RIPA buffer and 2.5 μL of sample, and 200 μL each was added after mixing A and B of the BCA Protein Assay Kit (iNtRON, 21071) in a ratio of 50:1. The plate was incubated at 37° C. for 30 minutes and left at room temperature for 10 minutes. After shaking for 10 seconds with a SYNERGY H1 microplate reader from BioTek, the absorbance was measured at 562 nm. The protein was quantified using the measured value to make a sample, which was then incubated at 70° C. for 10 minutes. The sample buffer used here was a mixture of NuPAGE or Bolt 4× sample buffer (Invitrogen) and each 10× sample reducing agent depending on the gel to be used, and RIPA buffer was used for protein dilution.
[Western blotting detection] Equal amounts of samples were loaded onto NuPAGE or Bolt Bis-tris 4-12% gradient gel and run (200 V, 35 min). This was transferred to […] NC membrane using Trans-blot Turbo (BIO-RAD) (1.3 A constant, 25 V limit, 15 min), and blocked with 5% skim milk/0.2% TBST for 45 min at room temperature. Anti-SHPTP2 Mouse (1:1,000 in 5% skim milk/0.2% TBST, size: 70 kDa, Santa cruz sc-7384) and Anti-GAPDH Rabbit (1:2,000 in 5% skim milk or 5% BSA/0.2% TBST, size: 37 kDa, CST #2118) were added and incubated overnight at 4° C. After washing three times with 0.2% TBST washing buffer for 5 minutes each, secondary antibodies Anti-Mouse IgG (1:5,000 in 5% skim milk/0.2% TBST, CST) and IRDye® 680RD Goat anti-Rabbit IgG Secondary Antibody (1:10,000 in 5% skim milk/0.2% TBST, LI-COR 926-68071) were added, and incubated on a rocker at room temperature for 45 minutes. The resultants were washed five times with 0.2% TBST washing buffer for 5 minutes each, and detected using LI-COR's Odyssey. GAPDH was detected with a 700 nm channel, and SHPTP2 was detected using SuperSignal West Pico PLUS Chemiluminescent Substrate.
On the technique in general: A western blot detects proteins with antibodies after separation by electrophoresis.

For the compound `Cc1cc(C(C(=O)N2C[C@H](O)C[C@H]2C(=O)NCc2ccc(-c3scnc3C)cc2OC2CCN(C(=O)C3CCN(c4nccc(Sc5cnc(N6CCC(C)(N)CC6)c(CO)n5)c4Cl)CC3)CC2)C(C)C)on1` (stereo partly drawn) [Example 97, (2S,4R)—N-(2-((1-(1-(4-((5-(4-amino-4-methylpiperidin-1-yl)-6-(hydroxymethyl)pyrazin-2-yl)thio)-3-chloropyridin-2-yl)piperidine-4-carbonyl)piperidin-4-yl)oxy)-4-(4-methylthiazol-5-yl)benzyl)-4-hydroxy-1-(3-methyl-2-(3-methylisoxazol-5-yl)butanoyl)pyrrolidine-2-carboxamide], the SHP2% degradation (0.01 μM) is given as 95.0% and the SHP2% degradation (0.1 μM) turned out to be 99.7%.

`Cc1ncsc1-c1ccc(CNC(=O)[C@@H]2C[C@@H](O)CN2C(=O)[C@@H](n2cc(C3CC3)nn2)C(C)(C)C)c(OC2CCN(C(=O)C3CCN(c4nccc(Sc5cnc(N6CCC(C)(CN)CC6)cn5)c4Cl)CC3)CC2)c1` [Example 107, (2S,4R)—N-(2-((1-(1-(4-((5-(4-(aminomethyl)-4-methylpiperidin-1-yl)pyrazin-2-yl)thio)-3-chloropyridin-2-yl)piperidine-4-carbonyl)piperidin-4-yl)oxy)-4-(4-methylthiazol-5-yl)benzyl)-1-((S)-2-(4-cyclopropyl-1H-1,2,3-triazol-1-yl)-3,3-dimethylbutanoyl)-4-hydroxypyrrolidine-2-carboxamide]: the SHP2% degradation reads like this: (0.01 μM) 96.5%; (0.1 μM) 99.2%.

Regarding `CC(=O)N[C@H](C(=O)N1C[C@H](O)C[C@H]1C(=O)N[C@@H](C)c1ccc(-c2scnc2C)cc1O[C@H]1CC[C@H](C(=O)N2CC(Nc3cccc(Sc4cnc(N5CCC(C)(CN)CC5)cn4)c3Cl)C2)CC1)C(C)(C)C` [Example 48, (2S,4R)-1-((S)-2-acetamido-3,3-dimethylbutanoyl)-N—((S)-1-(2-(((1R,4S)-4-(3-((3-((5-(4-(aminomethyl)-4-methylpiperidin-1-yl)pyrazin-2-yl)thio)-2-chlorophenyl)amino)azetidine-1-carbonyl)cyclohexyl)oxy)-4-(4-methylthiazol-5-yl)phenyl)ethyl)-4-hydroxypyrrolidine-2-carboxamide], the SHP2% degradation by setting is: (0.01 μM) 88.8%; (0.1 μM) 98.3%.

Turning to `Cc1ncsc1-c1ccc(CNC(=O)[C@@H]2C[C@@H](O)CN2C(=O)[C@@H](NC(=O)C2(F)CC2)C(C)(C)C)c(OC2CCN(C(=O)C3CCN(c4nccc(Sc5cnc(N6CCC7(CC6)CO[C@@H](C)[C@H]7N)cn5)c4Cl)CC3)CC2)c1` [Example 67, (2S,4R)—N-(2-((1-(1-(4-((5-((3S,4S)-4-amino-3-methyl-2-oxa-8-azaspiro[4.5]decan-8-yl)pyrazin-2-yl)thio)-3-chloropyridin-2-yl)piperidine-4-carbonyl)piperidin-4-yl)oxy)-4-(4-methylthiazol-5-yl)benzyl)-1-((S)-2-(1-fluorocyclopropane-1-carboxamido)-3,3-dimethylbutanoyl)-4-hydroxypyrrolidine-2-carboxamide], the SHP2% degradation (0.01 μM) came to 94.5% and the SHP2% degradation (0.1 μM) is 96.9%.

For `Cc1ncsc1-c1ccc(CNC(=O)[C@@H]2C[C@@H](O)CN2C(=O)[C@@H](NC(=O)C2(F)CC2)C(C)(C)C)c(OC2CCN(C(=O)CC3CN(c4nccc(Sc5cnc(N6CCC(C)(CN)CC6)cn5)c4Cl)C3)CC2)c1` [Example 64, (2S,4R)—N-(2-((1-(2-(1-(4-((5-(4-(aminomethyl)-4-methylpiperidin-1-yl)pyrazin-2-yl)thio)-3-chloropyridin-2-yl)azetidin-3-yl)acetyl)piperidin-4-yl)oxy)-4-(4-methylthiazol-5-yl)benzyl)-1-((S)-2-(1-fluorocyclopropane-1-carboxamido)-3,3-dimethylbutanoyl)-4-hydroxypyrrolidine-2-carboxamide], the SHP2% degradation is reported as 87.9% (0.01 μM) and 99.8% (0.1 μM).

With `Cc1cc(C(C(=O)N2C[C@H](O)C[C@H]2C(=O)NCc2ccc(-c3scnc3C)cc2OC2CCN(C(=O)C3CCN(c4nccc(Sc5cnc(N6CCC(C)(CN)CC6)cn5)c4Cl)CC3)CC2)C(C)C)on1` (stereo partly drawn) [Example 93, (2S,4R)—N-(2-((1-(1-(4-((5-(4-(aminomethyl)-4-methylpiperidin-1-yl)pyrazin-2-yl)thio)-3-chloropyridin-2-yl)piperidine-4-carbonyl)piperidin-4-yl)oxy)-4-(4-methylthiazol-5-yl)benzyl)-4-hydroxy-1-(3-methyl-2-(3-methylisoxazol-5-yl)butanoyl)pyrrolidine-2-carboxamide], the SHP2% degradation was 99.9% (0.01 μM) and 99.9% (0.1 μM).

For `Cc1cn([C@H](C(=O)N2C[C@H](O)C[C@H]2C(=O)NCc2ccccc2OC2CCN(C(=O)C3CCN(c4nccc(Sc5cnc(N6CCC7(CC6)CO[C@@H](C)[C@H]7N)c(CO)n5)c4Cl)CC3)CC2)C(C)C)nn1` [Example 111, (2S,4R)—N-(2-((1-(1-(4-((5-((3S,4S)-4-amino-3-methyl-2-oxa-8-azaspiro[4.5]decan-8-yl)-6-(hydroxymethyl)pyrazin-2-yl)thio)-3-chloropyridin-2-yl)piperidine-4-carbonyl)piperidin-4-yl)oxy)benzyl)-4-hydroxy-1-((S)-3-methyl-2-(4-methyl-1H-1,2,3-triazol-1-yl)butanoyl)pyrrolidine-2-carboxamide], the SHP2% degradation is, setting by setting: (0.01 μM) 98.0%; (0.1 μM) 99.9%.

In the case of `Cc1ncsc1-c1ccc(CNC(=O)[C@@H]2C[C@@H](O)CN2C(=O)[C@@H](NC(=O)C2(F)CC2)C(C)(C)C)c(O[C@H]2CC[C@H](C(=O)N3CCC(Nc4nccc(Sc5cnc(N6CCC7(CC6)CO[C@@H](C)[C@H]7N)cn5)c4Cl)CC3)CC2)c1` [Example 25, (2S,4R)—N-(2-(((1R,4S)-4-(4-((4-((5-((3S,4S)-4-amino-3-methyl-2-oxa-8-azaspiro[4.5]decan-8-yl)pyrazin-2-yl)thio)-3-chloropyridin-2-yl)amino)piperidine-1-carbonyl)cyclohexyl)oxy)-4-(4-methylthiazol-5-yl)benzyl)-1-((S)-2-(1-fluorocyclopropane-1-carboxamido)-3,3-dimethylbutanoyl)-4-hydroxypyrrolidine-2-carboxamide], the SHP2% degradation is, setting by setting: (0.01 μM) 94.2%; (0.1 μM) 97.0%.
